These results are taken from ChEMBL document CHEMBL1201862, “PubChem BioAssay data set” (2004).

The structures appear in SMILES notation. Activity calls are given as the source filed them.

In one data set the target is T1, CAAX prenyl protease 2 (Saccharomyces cerevisiae S288c, UniProt Q03530).
T1 sequence (Q03530 whole entry): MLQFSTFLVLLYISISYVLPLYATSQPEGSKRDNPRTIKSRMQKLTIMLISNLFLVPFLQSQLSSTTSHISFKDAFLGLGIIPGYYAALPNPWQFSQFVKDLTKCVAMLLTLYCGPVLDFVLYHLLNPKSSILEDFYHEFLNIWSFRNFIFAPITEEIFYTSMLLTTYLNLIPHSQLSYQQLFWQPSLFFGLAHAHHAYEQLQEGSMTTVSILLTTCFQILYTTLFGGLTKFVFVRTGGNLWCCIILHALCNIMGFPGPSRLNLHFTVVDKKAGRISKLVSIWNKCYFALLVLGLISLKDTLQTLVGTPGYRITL
It counts as biochemical.

The next data set has as its target CAAX prenyl protease 1 (Saccharomyces cerevisiae S288c, UniProt P47154). The data set is described as follows: yeast CAAX protease Ste24 inhibition – biochemical, S. cerevisiae, plate reader, cherry-pick, dose response (AID 488815).
For data set [1], the target named is Mitogen-activated protein kinase 10 (Homo sapiens, UniProt P53779). Description: Dose response biochemical screening assay for inhibitors of c-Jun N-Terminal Kinase 3 (JNK3). [Related pubchem assays: 746 ].
Data set [2] addresses UDP-galactopyranose mutase (Mycobacterium tuberculosis, UniProt P9WIQ1). Description: Inhibitors of Mycobacterium tuberculosis UDP-galactopyranose mutase (UGM) enzyme Measured in Biochemical System Using Plate Reader - 2105-02_Inhibitor_Dose_CherryPick_Activity. [Related pubchem assays (depositor defined):AID504439].
Data set [3] can be described thus: viability of PTEN-deleted HCT116 cells – cell-based, HCT116 PTEN knockout, dose response (AID 1047).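 Note: HCT116 colon tumor cells with PTEN knocked out; cells exposed to compound for 60 hours before readout; potency for loss of cell viability measured by luminescence.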 Format: functional.
A short description of data set [4]: viability of HCT116 lacking mutant beta-catenin – cell-based, human colon tumor, dose response (AID 1045).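 Note: HCT116 colon tumor cells with beta catenin knocked out; cells exposed to compound for 60 hours.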 It counts as functional.
A short description of data set [5]: decrease of insulin promoter-GFP reporter – imaging, high-content screening, mouse beta cells (AID 1628). It counts as functional. As to conditions: MIN6.
Data set [6] can be described thus: luciferase reporter signal suppression in cells – H4 neuroglioma cells, luminescence, dose response (AID 1990). It counts as functional, cell-based.
Data set [7] in a line: Luminescence Cell-Based Dose Response HTS to Identify Inhibitors of 5'UTR Stem-Loop Driven Prion Protein mRNA Translation in H4 Neuroglioblastoma Cells. [Related pubchem assays: 1827 (Project Summary), 1813 (Primary HTS)]. It counts as functional.
Data set [8] is described as follows: alpha-synuclein stem-loop luciferase translation blockers – H4 neuroglioma cells, luminescence, confirmation (AID 1988). Format: functional, cell-based.
The nature of data set [9]: MIN6 cell viability loss – mouse insulinoma, cytotoxicity control, dose response (AID 2122).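 Note: confirmatory high-throughput counterscreen run to flag cytotoxic compounds.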 Format: functional.
For another data set, the target named is Cytochrome P450 2C19 (Homo sapiens, UniProt P33261). The data set is described as follows: Cytochrome panel assay with activity outcomes. Panel member name: p450-cyp2c19 Compounds with AC50 equal or less than 10 uM are considered active. Format: functional.
The next data set deals with Cytochrome P450 2D6 (Homo sapiens, UniProt P10635).
For data set [10], the target named is Dual specificity protein phosphatase 3 (Homo sapiens, UniProt P51452). Description: SAR VHR1 Fluorescent Assay for In Vitro dose response studies Set 3. [Related pubchem assays (depositor defined):AID1654, AID1661, AID1878]. It counts as functional.
The subject of the next data set is INS1. The data set is described as follows: beta-cell survival under cytokine stress – INS-1E, ATP luminescence, dry powder, dose response (AID 488844). It counts as functional, cell-based. As to conditions: Rattus norvegicus.
Data set [11] deals with T2, Polyadenylate-binding protein 1 (Homo sapiens, UniProt P11940). Description: MLLE domain peptide-binding blockers, IC50 – biochemical, fluorescence polarization, FITC-PAM2 peptide, dose response (AID 602259). The following applies: read-out: IC50_Mean. It counts as functional. (In fluorescence polarisation assays a small probe gives low polarisation when free and higher when bound to something large.)

The nature of data set [12]: Trypanosoma cruzi growth suppression in host cells – NIH3T3 host cells, beta-gal luminescence, confirmation (AID 2044).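 Note: intracellular parasites grown in NIH/3T3 mouse fibroblasts as host cells; luminescent beta-galactosidase reporter signal from transgenic T. cruzi replicating inside host cells; inhibitors lower the luminescence signal.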 It counts as functional, cell-based.
The target of a further data set is Beta Lactamase (Pseudomonas aeruginosa, UniProt Q932Y6). Description: BLA reporter interference, concentration series – BLA reporter cells, FRET fluorescence, artefact control for NOD2-RIPK2 interaction inhibitor project, dose response (AID 651552). It counts as functional, cell-based.
Data set [13] concerns the target DNA dC->dU-editing enzyme APOBEC-3G (Homo sapiens, UniProt Q9HC16). The data set is described as follows: Dose Response confirmation of small molecule APOBEC3G DNA Deaminase Inhibitors via a fluorescence-based single-stranded DNA deaminase assay. [Related pubchem assays (depositor defined):AID493012, AID493028]. Format: functional.
The next data set is described as follows: cells. It counts as functional.
The nature of data set [14]: THP-1 cell cytotoxicity, dose response, cytotoxicity control for non-replicating M. tuberculosis project (AID 489025). Format: functional.
The target of a further data set is Hexokinase (Trypanosoma brucei, UniProt Q38C41). The data set is described as follows: Confirmation assay for inhibitors of Trypanosoma brucei hexokinase 1-Analogue-first series. [Related pubchem assays (depositor defined):AID1430, AID1632, AID2516, AID2560, AID2579, AID2600, AID449725, AID492951]. Format: functional.
Data set [15] concerns the target T3, Mannose-6-phosphate isomerase (Homo sapiens, UniProt P34949).
T3 sequence (P34949 whole entry): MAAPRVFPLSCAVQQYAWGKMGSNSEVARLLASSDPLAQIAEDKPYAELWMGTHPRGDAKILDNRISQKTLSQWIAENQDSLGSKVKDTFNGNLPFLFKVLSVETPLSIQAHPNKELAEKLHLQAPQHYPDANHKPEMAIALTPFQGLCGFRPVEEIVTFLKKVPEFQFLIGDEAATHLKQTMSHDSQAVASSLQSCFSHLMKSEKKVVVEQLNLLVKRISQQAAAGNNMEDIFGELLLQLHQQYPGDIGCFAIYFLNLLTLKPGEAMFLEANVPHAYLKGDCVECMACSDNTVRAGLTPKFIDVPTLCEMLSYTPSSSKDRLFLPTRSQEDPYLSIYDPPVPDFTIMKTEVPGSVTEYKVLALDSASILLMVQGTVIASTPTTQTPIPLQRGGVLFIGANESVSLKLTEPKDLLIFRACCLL
Description: phosphomannose isomerase inhibition – biochemical, fluorescence intensity, confirmation (AID 1535).

Data set [16] deals with DNA dC->dU-editing enzyme APOBEC-3A (Homo sapiens, UniProt P31941). The data set is described as follows: A3A deaminase inhibition for selectivity – biochemical, dose response (AID 504722). It counts as functional.
Data set [17] in a line: Vero E6 cell cytotoxicity, dose response, cytotoxicity control for non-replicating M. tuberculosis project, secondary assay (AID 492998). It counts as functional, VeroE6. As to conditions: Vero C1008.
Data set [18] has as its target Phosphoethanolamine/phosphocholine phosphatase (Homo sapiens, UniProt Q8TCT1). Description: SAR assay for compounds that inhibit PHOSPHO1. [Related pubchem assays (depositor defined):AID1545, AID1565, AID1574].
For data set [19], the target named is Eukaryotic translation initiation factor 4E (Mus musculus, UniProt P63073). Description: blockers of eIF4G binding by eIF4E – biochemical, TR-FRET, dose response (AID 855).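 Note: potency for disrupting eIF4E binding to eIF4GI seen as loss of FRET.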 Format: functional.
In data set [20] the test system is Streptococcus sp. 'group A'. The data set is described as follows: Streptococcus pyogenes SK(-)GAS viability under kanamycin – luminescence, BacTiterGlo, confirmation, counter-screen for streptokinase expression inhibitor project, dose response (AID 1900). It counts as functional, organism-based. (In general: A counterscreen serves to expose hits that act by an unwanted route or on another target.)

In data set [21] the target is Heat shock protein HSP 90-alpha (Homo sapiens, UniProt P07900). Format: functional, organism-based.
Data set [22] can be described thus: Fluorescence-based cell-based high throughput dose response assay for inhibitors of the interaction of nucleotide-binding oligomerization domain containing 2 (NOD2) and the receptor-interacting serine-threonine kinase 2 (RIPK2). It counts as functional. The following applies: Homo sapiens.
The target in data set [23] is Glucose-6-phosphate 1-dehydrogenase (Homo sapiens, UniProt P11413). The data set is described as follows: inhibition of Homo sapiens G6PD, dose series – biochemical, fluorescence, selectivity assay for P. falciparum G6PD inhibitor project, dose response (AID 504792). It counts as functional.
Data set [24] has as its target T3, Mannose-6-phosphate isomerase. The data set is described as follows: Confirmation of compounds inhibiting phosphomannose isomerase (PMI) via a fluorescence intensity assay using a high concentration of mannose 6-phosphate. [Related pubchem assays (depositor defined):AID1209, AID1220, AID1545, AID1553, AID1620].
A further data set deals with T4, Streptokinase A (Streptococcus pyogenes serotype M1, UniProt P10520).
T4 sequence (P10520 whole entry): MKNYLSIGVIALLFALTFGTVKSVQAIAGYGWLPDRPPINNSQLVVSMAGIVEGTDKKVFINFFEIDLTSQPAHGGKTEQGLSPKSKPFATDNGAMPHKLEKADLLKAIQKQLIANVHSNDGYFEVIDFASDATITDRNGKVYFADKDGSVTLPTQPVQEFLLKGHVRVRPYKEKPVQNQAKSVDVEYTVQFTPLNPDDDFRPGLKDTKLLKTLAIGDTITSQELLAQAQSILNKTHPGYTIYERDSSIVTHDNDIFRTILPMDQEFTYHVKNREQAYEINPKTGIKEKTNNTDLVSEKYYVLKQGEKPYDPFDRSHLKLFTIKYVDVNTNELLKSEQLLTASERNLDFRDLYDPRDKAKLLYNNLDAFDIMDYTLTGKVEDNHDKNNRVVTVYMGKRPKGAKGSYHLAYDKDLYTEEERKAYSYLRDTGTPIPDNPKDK
Description: viability-normalized secreted streptokinase activity reduction – plasminogen activation absorbance, OD405, dose response (AID 1914).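 Note: secreted streptokinase activity via plasminogen activation per viability signal from cell pellet.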 Format: functional, Streptococcus pyogenes M1 GAS.

In data set [25] the target is T2, Polyadenylate-binding protein 1. The data set is described as follows: MLLE binding blockers, Cy5 peptide tracer – biochemical, fluorescence polarization, Cy5-PAM2 peptide, secondary, miRNA deadenylation inhibitor project, dose response (AID 602260). Format: functional. The following applies: read-out: IC50_Mean.
Data set [26] addresses T5, Mitochondrial peptide methionine sulfoxide reductase (Bos taurus, UniProt P54149).
T5 sequence (P54149 whole entry): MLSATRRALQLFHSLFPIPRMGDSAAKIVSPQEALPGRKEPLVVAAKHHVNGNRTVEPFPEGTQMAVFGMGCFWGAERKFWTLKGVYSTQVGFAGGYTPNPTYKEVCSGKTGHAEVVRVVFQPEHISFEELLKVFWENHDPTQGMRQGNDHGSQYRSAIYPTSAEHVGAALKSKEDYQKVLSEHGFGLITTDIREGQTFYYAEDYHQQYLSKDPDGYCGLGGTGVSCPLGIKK
Description: Absorbance-based biochemical high throughput dose response assay for activators of Methionine sulfoxide reductase A (MsrA). It counts as functional.

In the next data set the test system is Streptococcus. Description: GAS UMAA2166 growth inhibition – luminescence, BacTiterGlo, counter-screen for streptokinase expression inhibitor project, dose response (AID 1915).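 Note: potency for reduction of bacterial viability or growth.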 It counts as functional, organism-based.

As usually defined, the AC50 is the midpoint of the concentration-response curve, whichever way the signal moves. Broadly, the EC50 is the concentration needed to bring the measured effect to its halfway point. By CC50 is commonly meant the concentration at which the toxic effect on the cells reaches its halfway point.

T2 sequence (P11940 whole entry, the tested form may be a part): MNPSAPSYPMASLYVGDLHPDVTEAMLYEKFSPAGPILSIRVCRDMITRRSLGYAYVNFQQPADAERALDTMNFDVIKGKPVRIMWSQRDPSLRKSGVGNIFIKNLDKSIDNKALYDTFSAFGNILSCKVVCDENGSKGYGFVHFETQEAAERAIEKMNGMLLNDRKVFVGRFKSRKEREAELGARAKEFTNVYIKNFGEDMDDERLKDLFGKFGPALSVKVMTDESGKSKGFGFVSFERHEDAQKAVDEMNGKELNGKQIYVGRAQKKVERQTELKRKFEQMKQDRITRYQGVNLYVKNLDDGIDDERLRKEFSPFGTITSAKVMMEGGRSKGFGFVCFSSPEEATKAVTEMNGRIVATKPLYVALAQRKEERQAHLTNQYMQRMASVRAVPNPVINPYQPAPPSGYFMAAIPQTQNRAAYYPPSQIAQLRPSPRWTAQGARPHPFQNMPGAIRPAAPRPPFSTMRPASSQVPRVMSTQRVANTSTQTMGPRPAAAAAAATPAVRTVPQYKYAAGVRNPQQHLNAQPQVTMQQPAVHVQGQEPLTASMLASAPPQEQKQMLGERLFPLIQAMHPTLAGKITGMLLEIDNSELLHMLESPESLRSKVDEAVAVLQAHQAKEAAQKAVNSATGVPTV
Glucose-6-phosphate 1-dehydrogenase, sequence (P11413 whole entry): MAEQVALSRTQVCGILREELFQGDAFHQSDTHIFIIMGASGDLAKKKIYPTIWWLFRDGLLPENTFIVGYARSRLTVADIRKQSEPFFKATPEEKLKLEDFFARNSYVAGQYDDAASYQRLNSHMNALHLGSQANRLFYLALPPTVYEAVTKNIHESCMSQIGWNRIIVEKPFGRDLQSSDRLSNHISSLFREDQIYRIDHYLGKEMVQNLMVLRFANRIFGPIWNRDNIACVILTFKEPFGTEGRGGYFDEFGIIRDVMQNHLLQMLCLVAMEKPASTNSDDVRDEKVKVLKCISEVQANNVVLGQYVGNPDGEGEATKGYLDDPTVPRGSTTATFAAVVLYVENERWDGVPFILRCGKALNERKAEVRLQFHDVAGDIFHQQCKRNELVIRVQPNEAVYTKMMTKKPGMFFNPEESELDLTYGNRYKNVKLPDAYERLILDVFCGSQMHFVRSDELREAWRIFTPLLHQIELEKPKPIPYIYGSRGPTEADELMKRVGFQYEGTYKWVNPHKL
Beta Lactamase, sequence (Q932Y6 whole entry): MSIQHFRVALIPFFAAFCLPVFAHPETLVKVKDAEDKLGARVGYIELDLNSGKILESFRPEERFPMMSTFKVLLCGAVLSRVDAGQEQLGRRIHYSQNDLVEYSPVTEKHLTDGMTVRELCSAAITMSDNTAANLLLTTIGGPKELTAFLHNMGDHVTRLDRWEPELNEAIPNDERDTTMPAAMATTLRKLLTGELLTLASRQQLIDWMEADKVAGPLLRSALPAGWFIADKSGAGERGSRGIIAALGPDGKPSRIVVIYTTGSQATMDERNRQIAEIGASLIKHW
Phosphoethanolamine/phosphocholine phosphatase, sequence (Q8TCT1 whole entry): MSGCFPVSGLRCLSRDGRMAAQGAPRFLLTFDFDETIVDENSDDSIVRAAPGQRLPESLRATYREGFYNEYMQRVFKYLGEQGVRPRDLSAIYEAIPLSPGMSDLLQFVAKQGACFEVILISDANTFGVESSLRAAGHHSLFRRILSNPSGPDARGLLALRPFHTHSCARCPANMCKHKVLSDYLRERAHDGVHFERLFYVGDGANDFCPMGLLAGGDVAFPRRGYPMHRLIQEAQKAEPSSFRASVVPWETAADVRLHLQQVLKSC
Dual specificity protein phosphatase 3, sequence (P51452 whole entry): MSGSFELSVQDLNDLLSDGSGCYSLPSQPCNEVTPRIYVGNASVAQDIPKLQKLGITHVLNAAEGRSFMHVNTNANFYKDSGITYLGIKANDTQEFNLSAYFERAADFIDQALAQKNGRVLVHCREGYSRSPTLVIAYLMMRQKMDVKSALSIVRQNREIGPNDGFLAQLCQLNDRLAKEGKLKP
Cytochrome P450 2D6, sequence (P10635 whole entry): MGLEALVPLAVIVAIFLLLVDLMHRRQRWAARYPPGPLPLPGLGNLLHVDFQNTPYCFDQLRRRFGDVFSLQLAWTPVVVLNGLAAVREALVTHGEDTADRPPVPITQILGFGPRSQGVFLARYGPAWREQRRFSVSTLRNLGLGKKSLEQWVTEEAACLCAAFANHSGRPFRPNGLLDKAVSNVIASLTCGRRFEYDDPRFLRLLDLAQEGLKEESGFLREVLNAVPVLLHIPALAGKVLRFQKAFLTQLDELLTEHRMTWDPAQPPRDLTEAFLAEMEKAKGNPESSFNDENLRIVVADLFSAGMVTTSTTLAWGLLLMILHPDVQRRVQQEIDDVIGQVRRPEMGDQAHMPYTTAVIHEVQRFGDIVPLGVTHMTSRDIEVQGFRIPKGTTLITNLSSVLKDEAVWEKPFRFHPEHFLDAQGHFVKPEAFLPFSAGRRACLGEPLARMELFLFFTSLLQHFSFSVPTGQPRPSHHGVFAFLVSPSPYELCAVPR
UDP-galactopyranose mutase, sequence (P9WIQ1 whole entry): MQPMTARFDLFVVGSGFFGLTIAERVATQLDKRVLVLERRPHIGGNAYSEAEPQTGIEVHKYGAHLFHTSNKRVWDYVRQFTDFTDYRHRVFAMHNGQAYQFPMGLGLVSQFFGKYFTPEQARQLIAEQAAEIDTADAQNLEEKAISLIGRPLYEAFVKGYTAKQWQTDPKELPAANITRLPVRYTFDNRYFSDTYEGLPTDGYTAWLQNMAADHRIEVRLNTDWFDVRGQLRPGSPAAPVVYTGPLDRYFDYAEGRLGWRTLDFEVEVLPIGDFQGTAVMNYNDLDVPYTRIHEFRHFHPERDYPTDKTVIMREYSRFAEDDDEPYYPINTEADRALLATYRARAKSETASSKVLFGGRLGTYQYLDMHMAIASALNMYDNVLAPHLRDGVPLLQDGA
Mitogen-activated protein kinase 10, sequence (P53779 whole entry): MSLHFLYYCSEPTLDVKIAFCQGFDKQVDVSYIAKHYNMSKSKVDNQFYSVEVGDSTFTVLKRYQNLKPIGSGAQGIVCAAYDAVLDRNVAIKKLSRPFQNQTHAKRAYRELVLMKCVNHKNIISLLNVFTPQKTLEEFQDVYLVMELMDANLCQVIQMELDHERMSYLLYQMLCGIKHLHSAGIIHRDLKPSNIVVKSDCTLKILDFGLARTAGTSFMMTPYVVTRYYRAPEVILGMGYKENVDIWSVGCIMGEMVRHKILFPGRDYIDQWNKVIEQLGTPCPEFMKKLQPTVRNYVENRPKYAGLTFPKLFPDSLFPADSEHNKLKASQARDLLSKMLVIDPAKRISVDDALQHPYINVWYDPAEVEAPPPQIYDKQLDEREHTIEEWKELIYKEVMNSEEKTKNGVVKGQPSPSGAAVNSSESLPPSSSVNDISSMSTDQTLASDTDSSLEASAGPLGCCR
CAAX prenyl protease 1, sequence (P47154 whole entry): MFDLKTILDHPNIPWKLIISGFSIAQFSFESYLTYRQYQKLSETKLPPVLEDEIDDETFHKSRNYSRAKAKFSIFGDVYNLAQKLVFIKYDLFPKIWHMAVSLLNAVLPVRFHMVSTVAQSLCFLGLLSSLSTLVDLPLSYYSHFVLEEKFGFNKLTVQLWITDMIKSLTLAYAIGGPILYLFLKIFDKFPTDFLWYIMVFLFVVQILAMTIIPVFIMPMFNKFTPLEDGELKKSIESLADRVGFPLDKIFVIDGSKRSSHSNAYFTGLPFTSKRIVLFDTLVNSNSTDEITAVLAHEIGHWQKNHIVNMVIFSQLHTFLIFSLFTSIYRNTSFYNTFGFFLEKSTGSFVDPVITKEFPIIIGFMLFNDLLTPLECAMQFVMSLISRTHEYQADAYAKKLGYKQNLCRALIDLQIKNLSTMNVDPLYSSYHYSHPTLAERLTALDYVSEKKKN
DNA dC->dU-editing enzyme APOBEC-3G, sequence (Q9HC16 whole entry): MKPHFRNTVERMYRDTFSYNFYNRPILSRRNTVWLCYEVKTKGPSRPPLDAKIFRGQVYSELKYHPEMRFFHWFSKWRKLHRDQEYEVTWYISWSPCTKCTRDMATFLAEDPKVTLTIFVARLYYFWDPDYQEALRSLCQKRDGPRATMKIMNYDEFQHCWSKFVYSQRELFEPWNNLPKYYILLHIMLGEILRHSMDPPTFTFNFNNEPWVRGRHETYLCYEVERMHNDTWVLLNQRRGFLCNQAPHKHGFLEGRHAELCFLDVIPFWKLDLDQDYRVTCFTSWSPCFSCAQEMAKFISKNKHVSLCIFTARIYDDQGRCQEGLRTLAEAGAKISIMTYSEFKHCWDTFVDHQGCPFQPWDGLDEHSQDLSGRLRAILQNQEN
Eukaryotic translation initiation factor 4E, sequence (P63073 whole entry): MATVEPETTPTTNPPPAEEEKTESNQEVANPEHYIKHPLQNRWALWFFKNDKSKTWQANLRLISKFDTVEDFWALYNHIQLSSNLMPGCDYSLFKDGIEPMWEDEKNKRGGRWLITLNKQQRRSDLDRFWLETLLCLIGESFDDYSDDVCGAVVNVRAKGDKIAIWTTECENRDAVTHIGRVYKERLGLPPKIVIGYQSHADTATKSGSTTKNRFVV
DNA dC->dU-editing enzyme APOBEC-3A, sequence (P31941 whole entry): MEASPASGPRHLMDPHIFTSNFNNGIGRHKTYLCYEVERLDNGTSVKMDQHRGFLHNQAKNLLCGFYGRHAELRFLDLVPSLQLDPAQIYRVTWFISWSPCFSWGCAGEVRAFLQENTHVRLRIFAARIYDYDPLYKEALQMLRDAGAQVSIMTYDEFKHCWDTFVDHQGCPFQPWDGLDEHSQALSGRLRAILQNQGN

Consider `COC(=O)c1ccccc1NC(=O)NCc1cccnc1`, for which the results for the AC50 on CAAX prenyl protease 2 and on CAAX prenyl protease 1 were 26.1 µM (active) and 3.47 µM (active), respectively. For the same compound, the IC50 in data set [1] was > 93.1 µM (not active).

For `O=C1NC(c2cccs2)Nc2sc3c(c21)CCCC3` (stereo not drawn), the AC50 in data set [2] is 129 µM (active).

For the compound `COc1ccc(N2CCN(Cc3nc(N)nc(Nc4ccc(C)c(Cl)c4)n3)CC2)cc1`, the EC50 in data set [3] is 28.9 µM (active); in data set [4] it was 24 µM (active); in data set [6], 9.58 µM (active); in data set [7], 26.8 µM (active); in data set [8], 13.7 µM (active). The IC50 was 3.03 µM (active) in [5] and 4.31 µM (active) in data set [9].

`Cc1ccc(Cl)cc1-n1c(=O)cc(N2CC(C)OC(C)C2)[nH]c1=O` (stereo not drawn): the AC50 entry on Cytochrome P450 2C19 and on Cytochrome P450 2D6 was “inconclusive” in each case.

On to `COc1ccc(-c2nnc(Nc3nc4c(F)cccc4s3)o2)c(OC)c1`, for which the IC50 in data set [10] was 13.7 µM (active).

Consider `C[C@@H]1CN([C@@H](C)CO)C(=O)c2cccc(NC(=O)Nc3ccccc3)c2O[C@H]1CN(C)S(=O)(=O)c1ccc(F)cc1`, for which the AC50 in the data set on INS1 was 61.3 µM (active).

Regarding `O=c1c2ccccc2sn1-c1ccccc1`, the concentration for a half-maximal effect (EC50) in data set [3] is 41.1 µM (active); in data set [4], 22.6 µM (active); in data set [12], 0.227 µM (active); in data set [20], 0.888 µM (active); at Streptokinase A it was > 150 µM (not active); in data set [26] it was 79.3 µM (inactive). In the data set on Streptococcus, the 50% effective concentration (EC50) is 4.17 µM (active). Besides, the IC50 is > 66 µM (inactive) in data set [11]; 16.6 µM (inactive) on Beta Lactamase; 6.4 µM (active) in data set [13]; 15.7 µM (active) in “cells”; 1.11 µM (active) at Hexokinase; 6.65 µM (active) in data set [15]. Further, the IC50 in data set [16] was > 100 µM (inactive); in data set [18], 0.941 µM (active); in [19], 20.1 µM (active); in data set [22], 4 µM (active); in [23] it was 8.87 µM (active); in data set [24] it was 21 µM (active). Also, in data set [25], the IC50 is > 66 µM (inactive). The CC50 in data set [14] was 10.9 µM (active); in data set [17] it was 13.4 µM (active). The concentration at half-maximal activity (AC50) in [21] was 18.7 µM (active).
